Test results: PMC3510196, “Cloning and Characterization of a P2X Receptor Expressed in the Central Nervous System of Lymnaea stagnalis” (PLoS ONE, 2012)

Columns and labels:
Experiment in all cases: two-electrode voltage clamp, Xenopus oocytes
Assay type in all cases: cell-based
LymP2X clone 11 = target: T1, LymP2X clone 11 (Lymnaea stagnalis, UniProt K7QP77, INS0MTTK)
T1 construct: full-length plus N-terminal MTTK (upstream in-frame ATG at nucleotide 3) added to LymP2X (GenBank JX524180); Xenopus oocytes
T1 sequence (K7QP77 1-435 INS0MTTK): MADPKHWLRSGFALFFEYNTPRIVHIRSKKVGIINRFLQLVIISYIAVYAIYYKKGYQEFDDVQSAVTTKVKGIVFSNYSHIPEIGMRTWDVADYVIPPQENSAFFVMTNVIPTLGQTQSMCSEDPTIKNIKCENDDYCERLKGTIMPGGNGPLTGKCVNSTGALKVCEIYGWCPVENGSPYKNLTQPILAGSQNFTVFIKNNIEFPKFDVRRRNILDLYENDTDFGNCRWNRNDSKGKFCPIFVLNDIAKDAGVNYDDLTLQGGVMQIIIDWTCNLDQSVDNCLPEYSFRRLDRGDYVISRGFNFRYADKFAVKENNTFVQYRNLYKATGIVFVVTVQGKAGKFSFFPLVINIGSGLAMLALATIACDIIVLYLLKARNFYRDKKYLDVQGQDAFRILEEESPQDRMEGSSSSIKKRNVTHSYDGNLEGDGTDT

LymP2X [1] = target: T2, LymP2X (Lymnaea stagnalis, UniProt K7QP77)
T2 construct: full-length, 435 residues, shorter clone starting at second in-frame ATG; cRNA injected in Xenopus oocytes; homotrimer expected (P2X family); differs from contig FX193730 in 50 residues of the cysteine-rich head (possible alternative exon)
T2 sequence (K7QP77 1-435): T1 sequence (K7QP77 1-435 INS0MTTK)

LymP2X [2] = target: T2, LymP2X; remark: listed apart in the source
LymP2X [3] = target: T2, LymP2X; conditions: weak agonist; pH 7.5, 1.8 mM Ba2+ in place of Ca2+, -60 mV

| SMILES | EC50 (LymP2X [1]) [µM] | IC50 (LymP2X [2]) [µM] | further results |
| --- | --- | --- | --- |
| Nc1ncnc2c1ncn2[C@@H]1O[C@H](COP(=O)(O)OP(=O)(O)OP(=O)(O)O)[C@@H](O)[C@H]1O [ATP] | 6.2 |  | EC50 (LymP2X clone 11): 5.8 µM |
| Nc1ncnc2c1ncn2[C@@H]1O[C@H](COP(=O)(O)OP(=O)(O)OP(=O)(O)O)[C@@H](OC(=O)c2ccc(C(=O)c3ccccc3)cc2)[C@H]1O [BzATP] | 2.4 |  |  |
| Cc1nc(N=Nc2ccc(S(=O)(=O)O)cc2S(=O)(=O)O)c(COP(=O)(O)O)c(C=O)c1O [PPADS] |  | 8.1 |  |
| Cc1ccc(C(=O)Nc2ccc(S(=O)(=O)O)c3cc(S(=O)(=O)O)cc(S(=O)(=O)O)c23)cc1NC(=O)c1cccc(NC(=O)Nc2cccc(C(=O)Nc3cc(C(=O)Nc4ccc(S(=O)(=O)O)c5cc(S(=O)(=O)O)cc(S(=O)(=O)O)c45)ccc3C)c2)c1 [suramin] |  | 27.4 |  |
| Nc1ncnc2c1ncn2[C@@H]1O[C@H](COP(=O)(O)CP(=O)(O)OP(=O)(O)O)[C@@H](O)[C@H]1O [αβmeATP] |  |  | % of 10 μM ATP response at 100 μM (LymP2X [3]): 36.9±10.6% |
